Assay results as given in patent EP0309566B1, “STLV-III-RELATED POLYPEPTIDES, DIAGNOSTIC SYSTEMS AND ASSAY METHODS” (JOHNSON AND JOHNSON, priority 1987, dated 1994).

Columns and labels:
24 sera = assay: Comparison of peptide p80 based and peptide p81 based ELISA, 24 sera; type: binding; conditions: for Ratio p80:p81: absorbance value ratio
Source text: The absorbance values obtained for each of 24 sera in a peptide p80 based ELISA were divided by those obtained in a peptide p81 based ELISA. The resulting absorbance value ratios are shown in ranked order in Table 14.

antibodies against HIV-1 = assay: Specificity ELISA (Example 12, Figure 3), HIV-1 antibody positive sera; type: binding, human; conditions: 20 sera with antibodies against HIV-1; positive O.D. above 0.150
Source text: In the Figures forming a portion of the disclosure of this invention: • Figure 1 illustrates a portion of the STLV-IIImac TMP amino acid residue sequence. The sequence is shown from left to right and in the direction of amino-terminus to carboxy-terminus in a single-letter code. The residue positions have been numbered as illustrated from 1-33. • Figure 2 illustrates, in a manner similar to Figure 1, a portion of the amino acid residue sequence of the HIV-1 TMP and represent gp41 amino acid residues […] as described in Ratner et al., Nature, 313:277-283 (1985). However, for ease of discussion, those residue positions have been renumbered as illustrated from 1-32. • Figure 3 contains 2 panels illustrating antibody determinations using a diagnostic system of this invention to assay (a) 20 sera from individuals in Guinea-Bissau previously determined to have antibodies against HIV-related viruses (West Africans), (b) 20 sera from HIV-1-infected individuals and (c) 20 sera from blood donors without antibodies to HIV-1 or HIV-2. Sera were considered positive (closed symbols) when they produced optical density (O.D.) values above 0.150 (the mean O.D. of negative samples plus 6 standard deviations). Negative sera are represented by open symbols. […]

antibodies to HIV-2 = assay: Specificity ELISA (Example 12, Figure 3), HIV-2 antibody positive sera; type: binding, human; conditions: 20 sera containing antibodies to HIV-2 but not to HIV-1 TMP gp41 (West Africans); positive O.D. above 0.150
antibodies against HIV-2 = assay: ELISA with STLV-III polypeptides p80 and p81, alone and in combination; type: binding, human; conditions: two sera containing high titers of antibodies against HIV-2, diluted 1:10; 490nm
Description: Preliminary studies using two sera containing high titers of antibodies against HIV-2 were performed by ELISA using each of p80 and p81 alone and in combination. One hundred microliters (ul) of 0.01M NaHCO₃, pH 9.6, containing 1 microgram (ug) of either p80 or p81 or a combination (admixture) of 1 ug of p80 and 1 ug of p81 were admixed into the wells of Immunolon II microtiter plates (Dynatech, Alexandria, VA). The plates were then maintained for about 16 hours at 4 degrees C to permit the polypeptides to adsorb onto (coat) the walls of the wells. After removing the polypeptide coating solution by shaking, 300 ul of PBS containing 1% bovine serum albumin (BSA), 5mM benzamidine, 10 kilounits Aprotinin, 10ug/ml Trypsin Inhibitor, 10mM EACA, 0.5mM PMSF, 2mM EDTA and 10% glycerol were admixed into each well to block excess protein binding sites. […]
Two hundred ul of OPD substrate were then admixed into each well to form a developing-reaction admixture. After maintaining the developing-reaction admixture for 30 minutes at about 20 degrees C, 50 ul of 4N H₂SO₄ were admixed into each well to stop the developing-reaction, and the resulting solutions were assayed for absorbance at 490nm using a microtiter plate reader.

## AIEKYLEDQAQLNAWCAFRQVC [p80]
24 sera; Serum No. 3541
  absorbance value: 0.181
  Ratio p80:p81: 7.240
24 sera; Serum No. 3616
  absorbance value: 0.686
  Ratio p80:p81: 14.600
24 sera; Serum No. 3743
  absorbance value: 0.257
  Ratio p80:p81: 6.425
24 sera; Serum No. 3923
  absorbance value: 0.180
  Ratio p80:p81: 2.687
24 sera; Serum No. 3942
  absorbance value: 0.588
  Ratio p80:p81: 11.530
24 sera; Serum No. 5160
  absorbance value: 0.251
  Ratio p80:p81: 1.064
24 sera; Serum No. 5182
  absorbance value: 0.162
  Ratio p80:p81: 1.588
24 sera; Serum No. 5727
  absorbance value: 0.504
  Ratio p80:p81: 0.895
24 sera; Serum No. 5740
  absorbance value: 2.000
  Ratio p80:p81: 46.510
24 sera; Serum No. 6598
  absorbance value: 0.072
  Ratio p80:p81: 0.351
24 sera; Serum No. 6599
  absorbance value: 0.206
  Ratio p80:p81: 0.888
24 sera; Serum No. 6600
  absorbance value: 0.359
  Ratio p80:p81: 1.173
24 sera; Serum No. 6601
  absorbance value: 0.353
  Ratio p80:p81: 2.558
24 sera; Serum No. 6602
  absorbance value: 0.516
  Ratio p80:p81: 516.000
24 sera; Serum No. 6603
  absorbance value: 1.152
  Ratio p80:p81: 2.736
24 sera; Serum No. 6604
  absorbance value: 1.808
  Ratio p80:p81: 4.520
24 sera; Serum No. 6631
  absorbance value: 0.153
  Ratio p80:p81: 0.537
24 sera; Serum No. 6650
  absorbance value: 0.700
  Ratio p80:p81: 20.590
24 sera; Serum No. 6661
  absorbance value: 0.647
  Ratio p80:p81: 4.044
24 sera; Serum No. 6665
  absorbance value: 0.254
  Ratio p80:p81: 4.792
24 sera; Serum No. 6674
  absorbance value: 2.000
  Ratio p80:p81: 7.752
24 sera; Serum No. 6683
  absorbance value: 0.387
  Ratio p80:p81: 0.791
24 sera; Serum No. 6698
  absorbance value: 2.000
  Ratio p80:p81: 90.910
24 sera; Serum No. 6877
  absorbance value: 0.248
  Ratio p80:p81: 31.000
Antibodies against HIV-1
  immunoreaction with sera: with one exception, produced no substantial immunoreaction
Antibodies to HIV-2
  immunoreaction with sera: pronounced reactions
Antibodies against HIV-2
  absorbance values: greater than 1.1
